From US20250195513A1, “DEGRADATION OF IRAK4 BY CONJUGATION OF IRAK4 INHIBITORS WITH E3 LIGASE LIGAND AND METHODS OF USE” (BeiGene, Ltd., priority 2022, published 2025)
Read-outs that look alike come from different tables or passages of the source.

Target: T1, IRAK4 (Homo sapiens, UniProt Q9NWZ3)
T1 construct: endogenous in cells; host or cells: Karpas299
T1 sequence (Q9NWZ3 1-460): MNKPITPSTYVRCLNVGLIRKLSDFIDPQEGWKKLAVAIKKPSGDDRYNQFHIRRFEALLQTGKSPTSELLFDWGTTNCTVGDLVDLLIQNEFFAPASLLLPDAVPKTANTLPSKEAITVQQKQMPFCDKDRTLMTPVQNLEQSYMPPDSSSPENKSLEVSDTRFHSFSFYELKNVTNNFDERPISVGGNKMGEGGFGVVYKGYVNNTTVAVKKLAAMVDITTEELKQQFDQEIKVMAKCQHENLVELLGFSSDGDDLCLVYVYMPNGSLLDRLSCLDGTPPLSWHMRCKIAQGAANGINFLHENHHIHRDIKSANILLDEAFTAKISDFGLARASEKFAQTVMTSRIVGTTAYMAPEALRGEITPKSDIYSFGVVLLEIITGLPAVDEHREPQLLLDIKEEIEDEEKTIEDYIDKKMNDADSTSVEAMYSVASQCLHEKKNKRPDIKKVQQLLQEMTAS
Test: IRAK4 Degradation Assay (Karpas299, HTRF/TR-FRET)
Type: cell-based
Procedure: IRAK4 degradation was measured using a TR-FRET-based method (Degorce, François, et al. Current chemical genomics. 2009, 3: 22). Karpas299 maintained in RPMI 1640 medium (Thermo Scientific) supplemented with 20% fetal bovine serum (FBS, Thermo Scientific), 100 units/mL penicillin and 0.1 mg/mL streptomycin (Thermo Scientific) were seeded into 96-well plates at the density of 0.2 million cells per well and then treated with a series dilution of compounds. After 24 hours or 5 hours treatment, cells were pelleted via centrifugation and 40 μL lysis buffer (Cisbio) was added to each well after removal of the supernatant. Plates were then incubated at room temperature with shaking for 30 minutes. A total of 16 μL of cell lysates from each well of a 96-well plate was transferred to a 384-well white assay plate. IRAK4 level was quantitated using the HTRF kit as described by the manufacturer manual (Cisbio). FRET signals were measured using a PHERAstar FSX reader (BMG Labtech).
After treatment, add HTRF lysis buffer to each well; seal the plate and incubate 1 hour at room temperature on a plate shaker; Once the cells are lysed, 16 μL of cell lysate are transferred to a PE 384-well HTRF detection plate; 4 μL of pre-mixed HTRF antibodies are added to each well; Cover the plate with a plate sealer, spin 1000 rpm for 1 min, Incubate overnight at room temperature; Read on BMG PheraStar with HTRF protocol (337 nm-665 nm-620 nm).
The inhibition (degradation) percentage of the compound was calculated by the following equation: […]
The IC50 (DC50) value of a compound can be obtained by fitting the following equation
Wherein, X and Y are known values, and IC50, Hillslope, Top and Bottom are the parameters obtained by fitting with software. Y is the inhibition percentage (calculated from the equation), X is the concentration of the compound; IC50 is the concentration of the compound when the […] is reached. The smaller the IC50 value is, the stronger the inhibitory ability of the compound is. Vice versa, the higher the IC50 value is, the weaker the ability the inhibitory ability of the compound is; Hillslope represents the slope of the fitted curve, generally around 1 *; Bottom represents the minimum value of the curve obtained by data fitting, which is generally 0%±20%; Top represents the maximum value of the curve obtained by data fitting, which is generally 100%±20%. The experimental data were fitted by calculating and analyzing with Dotmatics data analysis software.

[1] = Karpas-299 cells, 24 h treatment, maximum percentage of degradation, read-out: IRAK4 in Karpas-299 (24 h) Dmax (%)
[2] = Karpas-299 cells, 24 h treatment, read-out: IRAK4 in Karpas-299 (24 h) DC50

Structure (SMILES)	Dmax [1] [%]	DC50 [2] [nM]	DC50 (Degradation (Karpas-299), comparison table, Linker Type A, read-out: Compound (Linker Type A) DC50) [nM]	Dmax (Degradation (Karpas-299), comparison table, Linker Type A, read-out: Compound (Linker Type A) Dmax (%)) [%]
NC(=O)c1nn([C@H]2CC[C@H](N3CCN(C(=O)C4CN(c5ccc(N6CCC(=O)NC6=O)cc5)C4)CC3)CC2)cc1NC(=O)c1coc(-c2ccnc(NCC(F)(F)F)c2)n1 [Example 8, N-(3-carbamoyl-1-((1r,4r)-4-(4-(1-(4-(2,4-dioxotetrahydropyrimidin-1(2H)-yl)phenyl)azetidine-3-carbonyl)piperazin-1-yl)cyclohexyl)-1H-pyrazol-4-yl)-2-(2-((2,2,2-trifluoroethyl)amino)pyridin-4-yl)oxazole-4-carboxamide]	97	2.1	–	–
O=C1CCN(c2ccc(N3CC(N4CCN(C[C@H]5CC[C@H](n6cc(NC(=O)c7coc(-c8ccnc(NCC(F)(F)F)c8)n7)c(C(F)F)n6)CC5)CC4)C3)cc2)C(=O)N1 [Example 3, N-(3-(difluoromethyl)-1-((1r,4r)-4-((4-(1-(4-(2,4-dioxotetrahydropyrimidin-1(2H)-yl)phenyl)azetidin-3-yl)piperazin-1-yl)methyl)cyclohexyl)-1H-pyrazol-4-yl)-2-(2-((2,2,2-trifluoroethyl)amino)pyridin-4-yl)oxazole-4-carboxamide]	9	> 10000	> 10000	9
NC(=O)c1nn(-c2ccc(N3CCN(C(=O)[C@@H]4CCN(c5cc(F)c([C@H]6CCC(=O)NC6=O)c(F)c5)C4)CC3)nc2)cc1NC(=O)c1coc(-c2ccnc(NCC(F)(F)F)c2)n1 [Example 166, N-(3-carbamoyl-1-(6-(4-((R)-1-(4-((R)-2,6-dioxopiperidin-3-yl)-3,5-difluorophenyl)pyrrolidine-3-carbonyl)piperazin-1-yl)pyridin-3-yl)-1H-pyrazol-4-yl)-2-(2-((2,2,2-trifluoroethyl)amino)pyridin-4-yl)oxazole-4-carboxamide]	96	2.6	–	–
COc1cc2nn(C3CCN(C4CCN(C(=O)C5CN(c6ccc(N7CCC(=O)NC7=O)cc6)C5)CC4)CC3)cc2cc1NC(=O)c1cccc(C(F)(F)F)n1 [Example 44, N-(2-(1′-(1-(4-(2,4-dioxotetrahydropyrimidin-1(2H)-yl)phenyl)azetidine-3-carbonyl)-[1,4′-bipiperidin]-4-yl)-6-methoxy-2H-indazol-5-yl)-6-(trifluoromethyl)picolinamide]	99	9.3	–	–
COc1cc2nn([C@H]3CC[C@H](N4CCN(CCc5cc(F)c([C@H]6CCC(=O)NC6=O)c(F)c5)CC4)CC3)cc2cc1NC(=O)c1cccc(C(F)(F)F)n1 [Example 120, N-(2-((1R,4r)-4-(4-(4-((R)-2,6-dioxopiperidin-3-yl)-3,5-difluorophenethyl)piperazin-1-yl)cyclohexyl)-6-methoxy-2H-indazol-5-yl)-6-(trifluoromethyl)picolinamide]	99	4.2	–	–
CC(C)(O)c1cc2nn([C@H]3CC[C@H](N4CCN(CC(=O)N[C@@H](Cc5ccccc5)C(=O)NC5CCC(=O)NC5=O)CC4)CC3)cc2cc1NC(=O)c1ccc2cc(C#N)cnn12 (stereo partly drawn) [Example 439, 3-cyano-N-(2-((1S,4r)-4-(4-(2-(((2S)-1-((2,6-dioxopiperidin-3-yl)amino)-1-oxo-3-phenylpropan-2-yl)amino)-2-oxoethyl)piperazin-1-yl)cyclohexyl)-6-(2-hydroxypropan-2-yl)-2H-indazol-5-yl)pyrrolo[1,2-b]pyridazine-7-carboxamide]	58	252	–	–
CC(C)(O)c1cc2nn([C@H]3CC[C@H](N4CCN(C(=O)N5CCN(c6cc(F)c([C@H]7CCC(=O)NC7=O)c(F)c6)CC5)CC4)CC3)cc2cc1NC(=O)c1ccc2cc(C#N)cnn12 [Example 225, 3-cyano-N-(2-((1r,4r)-4-(4-(4-(4-((R)-2,6-dioxopiperidin-3-yl)-3,5-difluorophenyl)piperazine-1-carbonyl)piperazin-1-yl)cyclohexyl)-6-(2-hydroxypropan-2-yl)-2H-indazol-5-yl)pyrrolo[1,2-b]pyridazine-7-carboxamide]	97	1	–	–
N#Cc1cnn2c(C(=O)Nc3cc4cn([C@H]5CC[C@H](N6CCN(C7CN(c8cc(F)c([C@H]9CCC(=O)NC9=O)c(F)c8)C7)CC6)CC5)nc4c4c3OC(F)(F)O4)ccc2c1 [Example 385, 3-cyano-N-(2-((1R,4r)-4-(4-(1-(4-((R)-2,6-dioxopiperidin-3-yl)-3,5-difluorophenyl)azetidin-3-yl)piperazin-1-yl)cyclohexyl)-7,7-difluoro-2H-[1,3]dioxolo[4,5-g]indazol-5-yl)pyrrolo[1,2-b]pyridazine-7-carboxamide]	91	4.8	–	–
O=C1CC[C@H](c2c(F)cc(N3CC(C(=O)N4CCN([C@H]5CC[C@H](n6cc(NC(=O)c7coc(-c8ccnc(NCC9CC9)c8)n7)c(C(F)F)n6)CC5)C(=O)C4)C3)cc2F)C(=O)N1 [Example 100, 2-(2-((cyclopropylmethyl)amino)pyridin-4-yl)-N-(3-(difluoromethyl)-1-((1r,4r)-4-(4-(1-(4-((R)-2,6-dioxopiperidin-3-yl)-3,5-difluorophenyl)azetidine-3-carbonyl)-2-oxopiperazin-1-yl)cyclohexyl)-1H-pyrazol-4-yl)oxazole-4-carboxamide]	97	2.2	–	–
NC(=O)c1nn(-c2ccc(N3CCN(C(=O)C4CN(c5ccc(N6CCC(=O)NC6=O)cc5)C4)CC3)nc2)cc1NC(=O)c1coc(-c2ccnc(NCC(F)(F)F)c2)n1 [Example 28, N-(3-carbamoyl-1-(6-(4-(1-(4-(2,4-dioxotetrahydropyrimidin-1(2H)-yl)phenyl)azetidine-3-carbonyl)piperazin-1-yl)pyridin-3-yl)-1H-pyrazol-4-yl)-2-(2-((2,2,2-trifluoroethyl)amino)pyridin-4-yl)oxazole-4-carboxamide]	96	2.5	–	–
N#Cc1cnn2c(C(=O)Nc3cc4cn([C@H]5CC[C@H](N6CCN(C(=O)C7CN(c8cc(F)c([C@H]9CCC(=O)NC9=O)c(F)c8)C7)CC6)CC5)nc4c4c3OC(F)(F)O4)ccc2c1 [Example 384, 3-cyano-N-(2-((1r,4r)-4-(4-(1-(4-((R)-2,6-dioxopiperidin-3-yl)-3,5-difluorophenyl)azetidine-3-carbonyl)piperazin-1-yl)cyclohexyl)-7,7-difluoro-2H-[1,3]dioxolo[4,5-g]indazol-5-yl)pyrrolo[1,2-b]pyridazine-7-carboxamide]	97	2.2	–	–
O=C1CC[C@H](c2c(F)cc(N3CC(C(=O)N4CCN(c5ccc(-n6cc(NC(=O)c7coc(-c8ccnc(NCC9CC9)c8)n7)c(C(F)F)n6)cn5)CC4)C3)cc2F)C(=O)N1 [Example 90]	96	3.1	–	–
CC(C)(O)c1cc2nn(C3CCN([C@@H]4CCN(C(=O)C5CN(c6cc(F)c(N7CCC(=O)NC7=O)c(F)c6)C5)CC4(F)F)CC3)cc2cc1NC(=O)c1ccc2cc(C#N)cnn12 [Example 198, (R)-3-cyano-N-(2-(1′-(1-(4-(2,4-dioxotetrahydropyrimidin-1(2H)-yl)-3,5-difluorophenyl)azetidine-3-carbonyl)-3′,3′-difluoro-[1,4′-bipiperidin]-4-yl)-6-(2-hydroxypropan-2-yl)-2H-indazol-5-yl)pyrrolo[1,2-b]pyridazine-7-carboxamide]	93	9	–	–
O=C1CC[C@H](c2c(F)cc(N3CC(C(=O)N4CCN([C@H]5CC[C@H](n6cc(NC(=O)c7coc(-c8ccnc(NCC9CC9)c8)n7)c(C(F)F)n6)CC5)CC4)C3)cc2F)C(=O)N1 [Example 25, 2-(2-((cyclopropylmethyl)amino)pyridin-4-yl)-N-(3-(difluoromethyl)-1-((1r,4r)-4-(4-(1-(4-((R)-2,6-dioxopiperidin-3-yl)-3,5-difluorophenyl)azetidine-3-carbonyl)piperazin-1-yl)cyclohexyl)-1H-pyrazol-4-yl)oxazole-4-carboxamide]	99	2.5	–	–
